In PubChem BioAssay AID743349 (Broad Institute, 2014):
Calls of active or inactive are those of the source. How the calls were made is not given here.

What follows are compounds tested on M. tuberculosis wild type plus biotin, growth inhibition (assay: growth inhibition of wild-type M. tuberculosis, plus biotin, BioA project, dry powder (AID 743349)).

| SMILES | IC90 |
| --- | --- |
| CNS(=O)(=O)c1ccc(N2CCN(C(=O)c3ccc4c(c3)OCO4)CC2)cc1 | > 50 µM (inactive) |
| CC(=O)c1ccc(N2CCN(C(=O)c3ccccc3Cl)CC2)cc1 | > 50 µM (inactive) |
| CN1c2ccc(-c3ccc(F)cc3)cc2[C@H]2[C@H](CCN2C(=O)Cc2ccccn2)[C@H]1CO | > 50 µM (inactive) |
| CC(=O)c1ccc(NCCNC(=O)c2ccc3c(c2)OCO3)cc1 | > 50 µM (inactive) |
| CC(C)NC(=O)N1CC[C@@H]2[C@@H](CO)N(C)c3ccc(-c4cccc(F)c4)cc3[C@@H]21 | > 50 µM (inactive) |
| COc1ccccc1C(=O)N1CCN(c2ccc(C(C)=O)cc2)CC1 | > 50 µM (inactive) |
| COCC(=O)N1CC[C@@H]2[C@@H](CO)N(C)c3ccc(-c4cccc(F)c4)cc3[C@@H]21 | > 50 µM (inactive) |
| CN1c2ccc(-c3ccc(F)cc3)cc2[C@H]2[C@H](CCN2C(=O)Nc2ccc(F)cc2)[C@H]1CO | > 50 µM (inactive) |
| CC(=O)c1ccc(N2CCN(C(=O)c3ccc4c(c3)OCO4)CC2)cc1 | > 50 µM (inactive) |
| CN1c2ccc(-c3ccc(F)cc3)cc2[C@H]2[C@H](CCN2C(=O)Nc2cc(F)ccc2F)[C@H]1CO | > 50 µM (inactive) |
| CC(=O)c1ccc(N2CCN(C(=O)c3ccccc3F)CC2)cc1 | > 50 µM (inactive) |
| CCCNC(=O)N1CC[C@@H]2[C@@H](CO)N(C)c3ccc(-c4ccc(F)cc4)cc3[C@@H]21 | > 50 µM (inactive) |
| CN1c2ccc(-c3cccc(F)c3)cc2[C@H]2[C@H](CCN2C(=O)Cc2cccnc2)[C@H]1CO | > 50 µM (inactive) |
| CNC(=O)c1ccc(N2CCN(C(=O)c3ccc4c(c3)OCO4)CC2)cc1 | > 50 µM (inactive) |
| CCC(=O)N1CC[C@@H]2[C@@H](CO)N(C)c3ccc(-c4ccc(F)cc4)cc3[C@@H]21 | > 50 µM (inactive) |
| CN1c2ccc(-c3cccc(F)c3)cc2[C@H]2[C@H](CCN2C(=O)Nc2ccccc2F)[C@H]1CO | > 50 µM (inactive) |
| CCCCCCCC(=O)N1CC[C@@H]2[C@@H](CO)N(C)c3ccc(-c4cccc(F)c4)cc3[C@@H]21 | > 50 µM (inactive) |

| SMILES | IC90 |
| --- | --- |
| COC(=O)CCCCCCC(=O)N1CC[C@@H]2[C@@H](CO)N(C)c3ccc(-c4cccc(F)c4)cc3[C@@H]21 | > 50 µM (inactive) |
| COc1ccccc1NC(=O)N1CC[C@@H]2[C@@H](CO)N(C)c3ccc(-c4ccc(F)cc4)cc3[C@@H]21 | > 50 µM (inactive) |
| COc1ccc(NC(=O)N2CC[C@@H]3[C@@H](CO)N(C)c4ccc(-c5ccc(F)cc5)cc4[C@@H]32)cc1 | > 50 µM (inactive) |
| CC(=O)c1ccc(N2CCN(C(=O)c3ccc4c(c3)OCO4)[C@H](C)C2)cc1 | > 50 µM (inactive) |
| CN1c2ccc(-c3cccc(F)c3)cc2[C@H]2[C@H](CCN2C(=O)CCCCCCN)[C@H]1CO | > 50 µM (inactive) |
| COc1ccccc1NC(=O)N1CC[C@@H]2[C@@H](CO)N(C)c3ccc(-c4cccc(F)c4)cc3[C@@H]21 | > 50 µM (inactive) |
| CC(=O)c1ccc(N2CC3(CN(C(=O)c4ccc5c(c4)OCO5)C3)C2)cc1 | > 50 µM (inactive) |
| CN(C)C(=O)c1ccc(N2CCN(C(=O)c3ccc4c(c3)OCO4)CC2)cc1 | > 50 µM (inactive) |
| CN1c2ccc(-c3cccc(F)c3)cc2[C@@H]2[C@@H](CCN2C(=O)c2ccc3c(c2)OCO3)[C@H]1CO | > 50 µM (inactive) |
| CN1c2ccc(-c3cccc(F)c3)cc2[C@@H]2[C@@H](CCN2C(=O)c2ccc3c(c2)OCO3)[C@@H]1CO | > 50 µM (inactive) |
| CC(C)NC(=O)N1CC[C@@H]2[C@@H](CO)N(C)c3ccc(-c4ccc(F)cc4)cc3[C@@H]21 | > 50 µM (inactive) |
| COc1cccc(NC(=O)N2CC[C@@H]3[C@@H](CO)N(C)c4ccc(-c5cccc(F)c5)cc4[C@@H]32)c1 | > 50 µM (inactive) |
| COc1ccc(NC(=O)N2CC[C@@H]3[C@@H](CO)N(C)c4ccc(-c5cccc(F)c5)cc4[C@@H]32)cc1 | > 50 µM (inactive) |
| CN1c2ccc(-c3cccc(F)c3)cc2[C@H]2[C@H](CCN2C(=O)CCCCCCC(=O)O)[C@H]1CO | > 50 µM (inactive) |
| CN1c2ccc(-c3cccc(F)c3)cc2[C@H]2[C@H](CCN2C(=O)c2ccc3c(c2)OCO3)[C@@H]1CO | > 50 µM (inactive) |
| CN1c2ccc(-c3ccc(F)cc3)cc2[C@H]2[C@H](CCN2C(=O)Cc2cccnc2)[C@H]1CO | > 50 µM (inactive) |
| CN1c2ccc(-c3cccc(F)c3)cc2[C@H]2[C@H](CCN2C(=O)Cc2ccccc2)[C@H]1CO | > 50 µM (inactive) |
